Experiments:
[1] = system: LRP6; experiment: HA-LRP6 expression in HT1080 cells stably transduced with HA-LRP6, Western blot; format: cell-based, human; settings: HT1080 cells stably transduced with HA-LRP6, 24 h
Method: (A) structures of niciosamide and CI-994; (B) HEK293 cells were transfected with Super8XTOPFlash and β galactosidase vectors along with Wnt3A or control vector. After 24 hours incubation, cells were treated with CI-994 at the indicated concentration for 24 hr. The luciferase activity was then measured and normalized to the activity of the β-galactosidase. (C) HT1080 cells stably transduced LRP6 with HA tag were treated with niciosamide and CI-994 at the indicated concentrations for 24 h. The levels of HA-LRP6 were examined by Western blot with anti-HA antibody. (D) Western blots showing the depletion of LRP6 after 2 days of transiently transfection of 50 nM LRP6 siRNA in HEK293 cells. […] The luciferase activity was then measured and normalized to β-galactosidase activity. […]
(A) HT1080 cells stably transduced with human LRP6 with HA tag were treated with niciosamide (1 μM) and other compounds as noted (1 μM) for 24 hr. […] The luciferase activity was then measured and normalized to β-galactosidase activity. […]
Western blotting: Cells in 6-well plates were lysed in 0.5 ml of lysis buffer (phosphate-buffered saline containing 1% Triton X-100, 1× Proteinase inhibitor cocktail Complete, and 1 mM PMSF) at 4° C. for 15 min. Equal quantities of protein were subjected to SDS-PAGE under reducing conditions. […]

[2] = system: TCF/LEF reporter; settings: with Wnt3A; cited from earlier work

For `CC(=O)Nc1ccc(C(=O)Nc2ccccc2N)cc1` [CI-994, 4-(acetylamino)-N-(2-aminophenyl)benzamide, reference compound], the HA-LRP6 expression [1] is given as “significantly enhanced” and the “activity of the TCF/LEF reporter” value [2] is given as “able to synergize with Wnt3A to activate”.

— US20220267271A1, “WNT ACTIVATORS AND METHODS OF USE” (MAYO FOUNDATION FOR MEDICAL EDUCATION AND RESEARCH, priority 2019, published 2022)
